Experimental data taken from publication PMC10600239, “Selective MCL-1 inhibitor ABBV-467 is efficacious in tumor models but is associated with cardiac troponin increases in patients” (Communications Medicine, 2023).
“And” between values parts separate entries of the source, which are not always exact repeats. Identical values can stand only once. Like-named read-outs stand apart in the source and are kept apart here.

Key:
[1] = Anesthetized dog cardiovascular safety pharmacology; assay type: in vivo; conditions: anesthetized beagle, IV 1, 3 and 10 mg/kg
From the text: ABBV-467 was profiled in safety pharmacology studies in anesthetized (non-Good Laboratory Practice [GLP]) and telemetry-instrumented conscious (GLP) dog cardiovascular assays (Supplementary Table S6).
Supplementary Table S6: Maj or findings in safety pharmac ology cardiovascular studies c onduc ted with ABBV- […]
Species/Strain Route of Concentrations Sex and N Results
Administration or Doses per Group […]
Anesthetized IV 1, 3, and Male No effects up to a plasma concentration dog 10 m g/ k gN=4 o f 16 .83 µg/mL on […]
aged 8-12 months • Heart rate
• Systemic vascular resistance
At 67 .23 mg/m L, an increase in heart rate and decrease in systemic vascular
Conscious IV 0, 0.3, 1, and Male No effects on blood pressure, heart dog 3 mg/kg N=5–6a rate, or ECG parameters at any dose beagle (plasma concentration of 6.53 µg/mL at (aged 8-12 months 3-m g/ k g do s e )
ECG, electrocardiogram; IC50, half maximal inhibitory concentration; IV, intravenous; QTcV, QT interval correct ed accor ding to the Van de Water formula. No animals or data were excl uded from analysis . […] Healthy dogs, as determined by veterinary physical examination and clinical pathology, were selected for study based on availability without explicit randomization. […] Power analysis has shown a group size of 6 can statistically detect an approximately 20 % alteration in measured parameters w ith α =0.0 5. […]

[2] = test system: AMO-1 cells; test: In vitro cell viability assay (CellTiter-Glo); assay type: cell-based, human; parameters: Cell viability after compound washout (CellTiter-Glo): scale not given here; conditions: for Cell viability after compound washout (CellTiter-Glo): AMO-1, replicates
Description: All cell lines were grown and treated in RPMI 1640 or Dulbecco’s modified Eagle medium (Sigma, St. Louis, MO) supplemented with 10% fetal bovine serum (Gibco) or 10% human serum (Sigma) and maintained in a humidified incubator at 5% CO2 and 37 °C. DLD-1, MV4-11, NCI-H929 (all ATCC, Manassas, VA, USA) and AMO-1 (DSMZ, Braunschweig, Germany) cells were plated 4000 cells per well in 384-well tissue culture plates and treated with compounds of interest for 24 h at 37 °C, 5% CO2 humidified incubator. Each concentration was tested in duplicate at least 3 separate times. Adherent cells were allowed to adhere overnight prior to treatment. Alternatively, AMO-1 or NCI-H929 cells were treated with ABBV-467 for the indicated contact times (1–24 h) at 37 °C in a 5% CO2 humidified incubator and washed 3 times with compound-free media prior to incubation for the remainder of a 24-h treatment period. Cell viability was subsequently determined using CellTiter-Glo (Promega, Madison, WI, USA) according to the manufacturer’s instructions.
For in vitro viability assays, mean EC50 and EC90 values were determined from the resulting dose-response curves from at least 3 independent experiments, and depict the mean ± standard error of the mean.
Fig. 2 Apoptosis induced by ABBV-467 is mechanism based and induces cell death in MCL-1-dependent cell lines after short target engagement periods. H929 cells were treated with ABBV-467 in the presence or absence of the pan-caspase inhibitor z-VAD-fmk (50 µM) and the impact on caspase-3/7 activation (a), mitochondrial membrane potential (ΔΨm; b), and apoptosis (c) determined. Alternatively, BAK-deficient SKBR3 cells were treated with ABBV-467 for 24 h and the impact on cell viability compared with the parental cell line, determined by CellTiter-Glo. Inset depicts a western blot of BAK and BAX expression in SKBR3 cell variants using GAPDH as a loading control. Each of the 3 proteins were probed on separate blots (d). Data in (a–d) are presented as the mean ± standard error of the mean. H929 and AMO-1 cells were treated with ABBV-467 at the indicated concentrations and the impact on caspase-3/7 activation and viability (DRAQ7-positive) cells determined over time by Incucyte®. Data are presented as the mean ± standard deviation (e). H929 or AMO-1 cells were cultured in media containing 10% human serum and treated with ABBV-467 for the indicated contact times. Cells were subsequently washed 3 times with drug-free media and incubated in drug-free media for the remainder of the 24-h treatment period at 37 °C before cell viability was determined by CellTiter-Glo. Mean EC50 and EC90 values were determined from the resulting dose-response curves from at least 3 independent experiments, each assessed in quadruplicate, and depict the mean ± standard error of the mean. Presented ABBV-467 dose-response curves in H929 and AMO-1 cells were compiled from at least 3 independent experiments (f).

Cc1c(Cl)c2c(Cl)c(C)c1-c1c(-c3ccc(F)cc3)sc3ncnc(c13)O[C@@H](C(=O)O)Cc1cc(ccc1OCc1ccnc(-c3ccc(OC[C@H]4COCCO4)cc3)n1)OC[C@@H](CN1CCN(C)CC1)O2 [ABBV-467]
plasma concentration up to which no effects on blood pressure, heart rate, contractility, systemic vascular resistance, cardiac output, QTcV, QRS, PR interval [1]: 16 .83 µg/mL | EC50 ([2]; AMO-1, individual determinations, read-out: Individual EC50): 0.224 nM and 0.216 nM and 0.212 nM and 0.145 nM and 0.159 nM and 0.131 nM and 0.106 nM and 0.0956 nM and 0.0874 nM and 0.217 nM and 0.188 nM | Cell viability after compound washout (CellTiter-Glo) ([2]; 2hr + 22hr, Log Conc 1): 0.4281 and 0.471 and 0.3421 and 0.36 and 0.84 and 0.79 and 0.71 and 0.8 and 2.671 and 3.13 and 2.51 and 2.629 | Cell viability after compound washout (CellTiter-Glo) ([2]; c49-c56, head empty, Log Conc 0.39794): 0.4 | EC50 ([2]; Homo sapiens, AMO1, 10% human serum, contact time 1 hr, washout, viability at 24 h, read-out: AMO-1 Mean EC50): 31.9 nM | EC90 ([2]; Homo sapiens, AMO1, 10% human serum, contact time 2 hr, washout, viability at 24 h): 174 nM | EC50 ([2]; Homo sapiens, AMO1, 10% human serum, contact time 2 hr, washout, viability at 24 h, read-out: AMO-1 Mean EC50): 27.1 nM | EC90 ([2]; Homo sapiens, AMO1, 10% human serum, contact time 4 hr, washout, viability at 24 h): 141 nM | EC50 ([2]; Homo sapiens, AMO1, 10% human serum, contact time 4 hr, washout, viability at 24 h, read-out: AMO-1 Mean EC50): 17.4 nM | EC90 ([2]; Homo sapiens, AMO1, 10% human serum, contact time 6 hr, washout, viability at 24 h): 114 nM | EC50 ([2]; Homo sapiens, AMO1, 10% human serum, contact time 6 hr, washout, viability at 24 h, read-out: AMO-1 Mean EC50): 9.4 nM | EC90 ([2]; Homo sapiens, AMO1, 24 h, 10% human serum, contact time 24 hr): 6.7 nM | EC50 ([2]; Homo sapiens, AMO1, 24 h, 10% human serum, contact time 24 hr, read-out: AMO-1 Mean EC50): 0.7 nM | EC50 ([2]; Homo sapiens, AMO1, 24 h, read-out: AMO-1 EC50 (nM, 10% FBS), 10% FBS, 24 h continuous treatment): 0.1 nM | EC50 ([2]; Homo sapiens, AMO1, AMO-1, arithmetic mean, read-out: Arithmetic Mean EC50 nM): 0.15 nM | EC50 ([2]; Homo sapiens, AMO1, AMO-1, arithmetic mean, read-out: Arithmetic Mean EC50 µM): 0.155 nM | EC50 ([2]; Homo sapiens, AMO1, read-out: Individual EC50 µM, AMO-1, individual determinations): 0.112 nM | EC50 ([2]; read-out: AMO-1 EC50 (nM, 10% FBS), 10% FBS, 24 h continuous treatment): 0.16 nM | EC50 ([2]; read-out: Individual EC50 µM, AMO-1, individual determinations): 0.122 nM
